Reference: US20250221966A1, “RXFP1 AGONISTS” (BRISTOL-MYERS SQUIBB COMPANY, priority 2021, published 2025)

Biological target: T1, human RXFP1 (Homo sapiens, UniProt Q9HBX9)
T1 construct: expressed in transfected cells
T1 sequence (Q9HBX9 1-757): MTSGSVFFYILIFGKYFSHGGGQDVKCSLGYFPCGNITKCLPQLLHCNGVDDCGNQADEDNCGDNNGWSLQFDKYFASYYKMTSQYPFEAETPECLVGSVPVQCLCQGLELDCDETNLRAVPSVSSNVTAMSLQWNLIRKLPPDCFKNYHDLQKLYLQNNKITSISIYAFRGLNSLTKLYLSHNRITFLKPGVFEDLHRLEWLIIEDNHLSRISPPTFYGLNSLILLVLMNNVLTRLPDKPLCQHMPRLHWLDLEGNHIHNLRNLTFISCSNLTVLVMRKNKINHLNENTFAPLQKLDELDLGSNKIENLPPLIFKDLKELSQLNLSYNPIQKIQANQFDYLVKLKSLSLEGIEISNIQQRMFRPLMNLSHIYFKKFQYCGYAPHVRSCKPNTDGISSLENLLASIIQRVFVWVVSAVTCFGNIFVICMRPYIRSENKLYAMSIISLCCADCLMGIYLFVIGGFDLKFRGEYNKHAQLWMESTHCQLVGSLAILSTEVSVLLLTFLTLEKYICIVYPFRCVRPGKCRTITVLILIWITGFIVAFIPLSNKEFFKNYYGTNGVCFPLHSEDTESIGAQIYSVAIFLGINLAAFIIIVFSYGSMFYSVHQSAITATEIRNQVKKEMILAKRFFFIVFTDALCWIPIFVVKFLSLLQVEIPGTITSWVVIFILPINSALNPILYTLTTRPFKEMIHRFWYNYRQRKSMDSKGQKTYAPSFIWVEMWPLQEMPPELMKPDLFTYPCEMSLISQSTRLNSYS
Assay: RXFP1 cAMP assay (hRXFP1 HEK293 cAMP assay, HTRF)
Format: cell-based
Conditions: HEK293 cells stably expressing human RXFP1, 30 min at room temperature, read-out: cAMP hRXFP1 HEK293 Assay EC50
Method in brief: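 hRXFP1-HEK293 stable line; HBSS + Ca/Mg, 20 mM HEPES, 0.05% BSA, 0.5 mM IBMX; cpd 0.010 nM–50 μM, 2% DMSO; 30 min RT; lysis, HTRF cAMP detection; 4-PL fit.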

Row | Compound | EC50 [nM]
1 | COc1ccc(C2=NOC(C(=O)O)C2)cc1C(=O)N[C@@H]1C2CCC(/C2=C/C2CCC2)[C@@H]1C(=O)Nc1ccc(F)c(C(F)(F)F)c1 (stereo partly shown) [compound 388] | 152
2 | COc1ccc(-c2cc(C(O)C(=O)O)ccc2F)cc1C(=O)NC1C2CCC(/C2=C/C2CCN(Cc3ccc(Cl)cc3)C2)C1C(=O)Nc1ccc(F)c(C(F)(F)F)c1 (stereo not shown) [compound 357] | 211
3 | C=C/C=C1\C2CCC1[C@H](C(=O)Nc1ccc(F)c(C(F)(F)F)c1)[C@@H]2NC(=O)c1cc(F)c(F)cc1OC (stereo partly shown) [compound 44] | 26
4 | C=C/C=C1\C2CCC1[C@H](C(=O)Nc1ccc(F)c(C(F)(F)F)c1)[C@@H]2NC(=O)c1cc(-c2cc(C(=O)NS(C)(=O)=O)ccc2F)ccc1OC (stereo partly shown) [compound 162] | 40
5 | COc1ccc(-c2ccc(N3CCOCC3)nc2)cc1C(=O)N[C@H]1[C@@H](C(=O)Nc2ccc(F)c(C(F)(F)F)c2)[C@H]2CC[C@@H]1C2=C(C)C [compound 81] | 39
6 | COc1ccc(-c2ccc(C(=O)O)cc2F)cc1C(=O)N[C@@H]1C2CCC(/C2=C/C(F)(F)F)[C@@H]1C(=O)Nc1ccc(F)c(C(F)(F)F)c1 (stereo partly shown) [compound 293] | 32
7 | COc1ccc(N2C[C@H](O)CC2=O)cc1C(=O)N[C@H]1[C@@H](C(=O)Nc2ccc(F)c(C(F)(F)F)c2)[C@H]2CC[C@@H]1/C2=C\C1CC1 [compound 639] | 212
8 | CCOC(=O)c1coc(-c2ccc(OC)c(C(=O)N[C@@H]3C4CCC(C4=C(C)C)[C@@H]3C(=O)Nc3ccc(F)c(C(F)(F)F)c3)c2)n1 (stereo partly shown) [Example 110] | 800
9 | COc1ccc(-c2cc(C(=O)O)ccc2F)cc1C(=O)N[C@@H]1C2CCC(/C2=C/C2CC2)[C@@H]1C(=O)NC1CCCCC1 (stereo partly shown) [compound 203] | 322
10 | COc1ccc(-c2cc(C(=O)O)ccc2F)cc1C(=O)N[C@@H]1C2CCC(/C2=C/C2CC2)[C@@H]1C(=O)NCc1cccc(C(F)(F)F)c1 (stereo partly shown) [compound 264] | 3180
11 | Cc1ccc(C2=NOC3COCC23)cc1C(=O)N[C@H]1[C@@H](C(=O)Nc2ccc(F)c(C(F)(F)F)c2)[C@H]2CC[C@@H]1/C2=C\C1CC1 (single isomer, unassigned) [compound 654] | 300
12 | COc1ccc(C2=NOC3CN(C(=O)OC(C)(C)C)CC23)cc1C(=O)N[C@H]1[C@@H](C(=O)Nc2ccc(F)c(C(F)(F)F)c2)[C@H]2CC[C@@H]1/C2=C\C1CC1 (mixture of isomers) [Example 434, tert-butyl 3-(3-(((1R,2R,3S,4R,Z)-7-(cyclopropylmethylene)-3-((4-fluoro-3-(trifluoromethyl)phenyl)carbamoyl)bicyclo[2.2.1]heptan-2-yl)carbamoyl)-4-methoxyphenyl)-3a,4,6,6a-tetrahydro-5H-pyrrolo[3,4-d]isoxazole-5-carboxylate] | 24
13 | COc1ccc(N2CCCC(CO)C2)cc1C(=O)N[C@@H]1C2CCC(/C2=C/C2CC2)[C@@H]1C(=O)Nc1ccc(F)c(C(F)(F)F)c1 (single isomer, unassigned) [compound 705] | 1300
14 | COc1cc(F)c(F)cc1C(=O)N[C@@H]1[C@@H]2CCC(/C2=C/c2ccoc2)[C@@H]1C(=O)Nc1ccc(F)c(C(F)(F)F)c1 [Example 12] | 410
15 | COc1ccc(-c2cc(C(=O)O)ccc2F)cc1C(=O)N[C@@H]1C2CCC(/C2=C/C2CC2)[C@@H]1C(=O)NC1CC(F)(F)C1 (stereo partly shown) [compound 304] | 1710
16 | COc1ccc(-c2cc(C(=O)OC(C)(C)C)ccc2F)cc1C(=O)N[C@@H]1C2CCC(/C2=C/C(F)(F)F)[C@@H]1C(=O)Nc1ccc(F)c(C(F)(F)F)c1 (stereo partly shown) [compound 294] | 47
17 | COc1ccc(C2=NOC3CC(C(C)(C)O)CC23)cc1C(=O)N[C@H]1[C@@H](C(=O)Nc2ccc(F)c(C(F)(F)F)c2)[C@H]2CC[C@@H]1/C2=C\C1CC1 (single isomer, unassigned) [compound 579] | 71.6
18 | COc1ccc(C2=NOC(CCO)C2)cc1C(=O)N[C@@H]1C2CCC(/C2=C/C2CC2)[C@@H]1C(=O)Nc1ccc(F)c(C(F)(F)F)c1 (stereo partly shown) [compound 399] | 42
19 | COc1ccc(C2=NOC3COCC23)cc1C(=O)N[C@H]1[C@@H](C(=O)NCc2ccccc2OC(F)F)[C@H]2CC[C@@H]1/C2=C\C1CC1 (stereo partly shown) [compound 624] | 169

Now those with a lower EC50, led by results:

Row | EC50 [nM] | Compound
20 | 5.5 | COc1ccc(-c2cc(C(C)CC(=O)O)ccc2F)cc1C(=O)N[C@H]1[C@@H](C(=O)Nc2ccc(F)c(C(F)(F)F)c2)[C@H]2CC[C@@H]1/C2=C\C1CC1 (stereo partly shown) [compound 887]
21 | 4.7 | COc1c(Cl)cc(C2=NOC3CC(CO)CC23)cc1C(=O)N[C@H]1[C@@H](C(=O)Nc2ccc(F)c(C(F)(F)F)c2)[C@H]2CC[C@@H]1/C2=C\C1CC1 (stereo partly shown) [compound 798]
22 | 3 | COc1ccc(-c2cc(C3OC(=O)N(c4ccccc4)C3=O)ccc2F)cc1C(=O)N[C@@H]1C2CCC(/C2=C/C2CC2)[C@@H]1C(=O)Nc1ccc(F)c(C(F)(F)F)c1 (stereo partly shown) [compound 255]
23 | 2 | COc1ccc(-c2cc(C(OC(=O)NCCC(F)(F)F)C(F)(F)F)ccc2F)cc1C(=O)N[C@@H]1C2CCC(/C2=C/C2CC2)[C@@H]1C(=O)Nc1ccc(F)c(C(F)(F)F)c1 (stereo partly shown) [compound 213]
24 | 3.9 | COc1c(F)cc(C2=NOC3CC(CO)CC23)cc1C(=O)N[C@H]1[C@@H](C(=O)NC23CC(C)(C2)C3)[C@H]2CC[C@@H]1/C2=C\C1CC1 (stereo partly shown) [compound 773]
25 | 8.5 | COc1ccc(-c2cccc3c2CN(C(=O)C(C)(C)O)C3)cc1C(=O)N[C@@H]1C2CCC(/C2=C/C2CC2)[C@@H]1C(=O)Nc1ccc(F)c(C(F)(F)F)c1 (stereo partly shown) [compound 889]
26 | 11 | COc1ccc(C2=NOC(CC(C)(C)O)C2)cc1C(=O)N[C@H]1[C@@H](C(=O)Nc2ccc(F)c(C(F)(F)F)c2)[C@H]2CC[C@@H]1/C2=C\C1CC1 (single isomer, unassigned) [compound 499]
27 | 1.9 | COc1ccc(C2=NOC3COCC23)cc1C(=O)N[C@H]1[C@@H](C(=O)Nc2ccc(F)c(OC(F)(F)F)c2)[C@H]2CC[C@@H]1/C2=C\C1CC1 (stereo partly shown) [compound 761]
28 | 5.2 | COc1ccc(-c2cc([C@H](OC(=O)NC3CCC3)C(F)(F)F)ccc2F)cc1C(=O)N[C@@H]1C2CCC(/C2=C/C(C)C)[C@@H]1C(=O)Nc1ccc(F)c(C(F)(F)F)c1 (stereo partly shown) [compound 925]
29 | 4.3 | O=C(N[C@H]1[C@@H](C(=O)Nc2ccc(F)c(C(F)(F)F)c2)[C@H]2CC[C@@H]1/C2=C\C1CC1)c1cc(C2=NOC3CC(CO)CC23)ccc1OCCCF (stereo partly shown) [compound 788]
30 | 6.1 | COc1ccc(-c2cc([C@@H](NC(=O)C3CCOCC3)C(F)(F)F)ccc2F)cc1C(=O)N[C@H]1[C@@H](C(=O)Nc2ccc(F)c(C(F)(F)F)c2)[C@H]2CC[C@@H]1/C2=C\C1CCCC1 [compound 956]
31 | 21 | COc1ccc(C2=NOC3C[C@H](O)CC23)cc1C(=O)N[C@@H]1C2CCC(/C2=C/C2CC2)[C@@H]1C(=O)Nc1ccc(F)c(C(F)(F)F)c1 (stereo partly shown) [compound 407]
32 | 8.7 | COc1ccc(-c2cccc(C3=NOC4CC(O)CC34)c2)cc1C(=O)N[C@H]1[C@@H](C(=O)Nc2ccc(F)c(C(F)(F)F)c2)[C@H]2CC[C@@H]1/C2=C\C1CC1 (stereo partly shown) [compound 902]
33 | 4 | O=C(N[C@H]1C(C(=O)Nc2ccc(F)c(C(F)(F)F)c2)[C@H]2CC[C@@H]1/C2=C\C1CC1)c1cc(C2=NOC3COCC23)ccc1OCC(F)F (stereo partly shown) [compound 785]
34 | 1.2 | COc1ccc(C2=NOC3CC(C#N)CC23)cc1C(=O)N[C@H]1[C@@H](C(=O)N[C@H](C)C2(C)CC2)[C@H]2CC[C@@H]1/C2=C\C1CC1 (stereo partly shown) [compound 760]
